Here are results for 7 compounds from patent publication US20190231793A1, “USE OF HARRINGTONINES IN THE TREATMENT OF BREAST CANCER, IN PARTICULAR TRIPLE-NEGATIVE BREAST CANCER” (priority 2016, published 2019).

The conditions of test [1]: cytotoxic = toxicity for tumor cells in culture; anticancer = data obtained in clinical trials; cited from earlier work.
In test [2] the test system is MDA-MB-231. Nature of the test: Cell cycle by flow cytometry. Type of test: cell-based. The conditions noted are these: MDA-MB-231, 48 hours, 20 nM or 50 nM HHT. As for the experimental part: (§1) Cell cycle and apoptosis: the number of cells in different phases of the cell cycle or in apoptosis was determined by flow cytometry using FITC Annexin V Apoptosis Detection Kit 1 (BD Biosciences) and following the manufacturer's recommendations. Briefly, 3×10^4 cells of each line were seeded in 6-well plates and, after 24 h resting, treated with increasing concentrations of HHT for 6-72 h, then washed and incubated with propidium iodide and or with FITC annexin V). The fluorescence was measured using a BD LSH II cytofluorometer (BD Biosciences).

For test [3], the system named is CAL-51. Briefly: Cell cycle by flow cytometry. The class given is cell-based. The conditions noted are these: CAL-51, 48 hours, 20 nM HHT. How it is done: as §1
Background: Flow cytometry measures light scatter and fluorescence of single cells or particles in a stream.

For test [4], the system named is MDA-MB-468. Briefly: Cell cycle by flow cytometry. The conditions noted are these: MDA-MB-468, 48 hours, 20 nM or 50 nM HHT. The class given is cell-based. As for the experimental part: as §1
The subject of test [5] is MDA-MB-157. Nature of the test: Cell cycle by flow cytometry. Type of test: cell-based. The settings on record: MDA-MB-157, 48 hours, 50 nM HHT. As for the experimental part:
as §1

In test [6] the test system is Mcl-1. Nature of the test: Western blot, expression of apoptosis regulatory proteins. The class given is cell-based. The conditions noted are these: 100 nM HHT; all lines analyzed except MDA-MB-231 (CAL-51, MDA-MB-468, MDA-MB-157). How it is done: (§2) Western blot: 5×10^5 cells, in 10 ml of medium, were inoculated in the 100 mm Petri dishes. After 24 hours of rest, the cells were incubated with 100 nM of HHT for different times, staggered for 2 hours and 48 hours. Then, the cells were washed and lysed directly into the dishes (without trypsinization) using RIPA buffer (Pierce-ThermoScientific), containing a mixture of protease inhibitors (Sigma). The protein concentration was determined by the method of Bradford. Protein electrophoresis was performed in 12-30% polyacrylamide gels. After transfer to the PVDF membrane, the revelation was carried out by ECL Plus (Amersham).
For orientation: Immunoblotting shows a protein as a band on a membrane.

Test [7] deals with XIAP. The test is described as above. Type of test: cell-based. The conditions noted are these: 100 nM HHT; compared with Mcl-1. As for the experimental part: as §2
Test [8] concerns survivin. Described as above. The class given is cell-based. The settings on record: 100 nM HHT; CAL-51; same effect as for Mcl-1 (very fast and strong drop). As for the experimental part:
as §2

Test [9] has as its system MDA-MB-231. Briefly: Apoptosis by flow cytometry (FITC Annexin V). The class given is cell-based. The settings on record: regardless of concentration or incubation time. As for the experimental part: as §1
Test [10] has as its system CAL-51. Briefly: Apoptosis by flow cytometry (FITC Annexin V). The class given is cell-based. The settings on record: increasing concentrations, 6-72 h. How it is done: as §1
The test system of test [11] is MDA-MB-468. Briefly: Apoptosis by flow cytometry (FITC Annexin V). The conditions noted are these: increasing concentrations, 6-72 h. The class given is cell-based. As for the experimental part: as §1
The test system of test [12] is MDA-MB-157. Nature of the test: Apoptosis by flow cytometry (FITC Annexin V). Type of test: cell-based. The settings on record: increasing concentrations, 6-72 h. How it is done:
as §1

Test [13] relates to CAL-51. Briefly: Cell viability (SRB), inhibition of cell proliferation. Type of test: cell-based. How it is done: (§3) Cell Lines: CAL-51 (PIK3CA mutated) and MDA-MB-157 (without apparent genomic alteration of the PI3K-AKT-mTOR axis (NF1, TP53 mutated) were cultured in DMEM+10% FCS+200 μg/ml gentamicin, in humidified atmosphere, at 5% CO 2.
(§4) Drug: commercial HHT (Sigma-Aldrich), purified by recrystallization according to Liu's technique [U.S. Pat. No. 62,073, 14 May 1987], was provided free of charge by LeukePharma (Le Mans, France). The stock solution of 20 mM HHT citrate was obtained by dissolution in citric acid (Sigma-Aldrich), in equimolar amount or by direct dissolution of the crystalline homoharringtonine salt in sterile purified water. The following dilutions of this stock solution were performed using sterile PBS buffer. All of the solutions was stored at −80° C.
(§5) Cell viability: The cells were seeded in the 96-well plates at the concentration of 5000 cells/well (3.3×10^4/ml) for the MDA-MB-lines, and at the concentration of 1000 cells/well (6.6×10 3 ml) for CAL-51. After 24 hours of rest, at the confluence of 50-60%, the cells were treated with increasing concentrations of HHT for 24 h, 48 h and 72 h. After washing twice with sterile PBS and 48 h rest, the cells were fixed with trichloroacetic acid. After the addition of […] (SRB), the absorbance was measured at 540 nm (Multiskan™ FC plate photometer, Thermo Scientific). IC50s were calculated by CompuSyn (Chou & Talalay, ComboSyn Inc., Paramus, N.J., USA).

The test system of test [14] is MDA-MB-157. Described as above. The class given is cell-based. How it is done: as §3, §4, §5
Test [15] relates to MDA-MB-231. The test is described as above. The class given is cell-based. The settings on record: Homo sapiens; for viability at 0.05 µM / viability at 0.1 µM: read-out: viable fraction (Fv=% of viable cells). How it is done:
(§6) MDA-MB-468 (PTEN, RB1, SMAD4, mutated TP53, amplified EGFR/ERBB1) and MDA-MB-231 (highly metastatic, without alteration of PI3K-Akt-mTOR; KRAS, BRAF, CDKN2A, PDGFRA, (NF2, Mutated TP53) were cultured in Liebowitz's medium+10% FCS+200 μg/ml gentamycin, in a CO2-free atmosphere
as §4, §5

Test [16] relates to MDA-MB-468. Described as above. The class given is cell-based. As for the experimental part: as §6, §4, §5
Test [17] concerns MDA-MB-231 xenograft. Nature of the test: In vivo study on MDA-MB-231 triple negative breast tumor xenograft. The conditions noted are these: 1 mg of HHT (as salt) per kg subcutaneously twice daily for 8 days; difference between day 0 and day 10; control group increased 20-30%. More on the design: species or system Swiss nudes immuno-depressed mice (nu/nu). How it is done: The efficacy of homoharringtonine in vivo on xenografts of the triple-negative breast cancer line (MDA-MB-231), was performed on Swiss nudes immuno-depressed mice (nu/nu), […]. −12 weeks. The tumor was grafted in 16 animals, by injecting 5×10^6 cells of the tumor strain, subcutaneously in the dorsal region, until a tumor volume of 200-300 mm 3 was obtained. 8 mice received 1 mg of HHT (as salt) per kg subcutaneously twice daily for 8 days. The control group (7 mice) received only physiological saline in the same dosage as HHT. Mice were sacrificed 3 days after stopping treatment, recovered xenografts, and measured tumor size. The tissues were then formalin-fixed and paraffin-embedded for subsequent histological analyzes.

The subject of test [18] is apoptosis regulatory proteins in MDA-MB-231. Briefly: Western blot, expression of apoptosis regulatory proteins in line MDA-MB-231. The class given is cell-based. The settings on record: 100 nM HHT. How it is done: as §2
Where [19] appears, read: 24 h, 48 h, 72 h, regardless of the concentrations (p>0.05).
Setting [20] is: Homo sapiens, 24 hours, range given for 3 out of 4 lines analyzed.

Like-named read-outs stand apart in the source and are kept apart here.

In the case of `COC(=O)C[C@](O)(CCC(C)(C)O)C(=O)O[C@@H]1C(OC)=C[C@]23CCCN2CCc2cc4c(cc2[C@H]13)OCO4` [(1a), harringtonine], the Activity entry in test [1] is listed as “anticancer”.
Regarding `COC(=O)CC(O)(CC(C)(C)O)C(=O)OC1C(OC)=CC23CCCN2CCc2cc4c(cc2C13)OCO4` (stereo not shown) [(1c), norharringtonine], the Activity entry in test [1] is “none”.
Consider `COC(=O)C[C@](O)(CCC(C)C)C(=O)O[C@@H]1C(OC)=C[C@]23CCCN2CCc2cc4c(cc2[C@H]13)OCO4` [(1d), deoxyharringtonine], for which, in [1], the Activity result was “anticancer”.
`COC(=O)CC(O)(CCCCC(C)(C)O)C(=O)OC1C(OC)=CC23CCCN2CCc2cc4c(cc2C13)OCO4` (stereo not shown) [(1e), bishomoharringtonine]: the Activity entry in [1] is “none”.
In the case of `COC(=O)[C@@H](O)[C@](O)(CCC(C)C)C(=O)O[C@@H]1C(OC)=C[C@]23CCCN2CCc2cc4c(cc2[C@H]13)OCO4` [(1f), isoharringtonine], the Activity entry in [1] is recorded as “none”.
Broadly, the IC50 is the midpoint of a concentration-inhibition curve. Low values mean greater potency in that assay, high ones weaker potency in that assay. `COC(=O)C[C@](O)(CCCC(C)(C)O)C(=O)O[C@@H]1C(OC)=C[C@]23CCCN2CCc2cc4c(cc2[C@H]13)OCO4` [HHT, homoharringtonine]: the “effect on the cell cycle” value in test [2] was “stopped in the G2/M phase”; in test [3] it was “accumulation of CAL-51 and MDA-MB-157 cells in Set GO/G1 phase”; in [4], “stopped in the G2/M phase”; in test [5], “accumulation of CAL-51 and MDA-MB-157 cells in Set GO/G1 phase”. The “level of Mcl-1” value in test [6] is “very fast and strong drop”. Also, the “reduction in the XIAP rate” value in test [7] was “more modest and occurred later”. In addition, in test [8], the level of survivin entry is recorded as “same effect”. Besides, the “effect on apoptosis (% of cells in early and late apoptosis)” value in test [9] is “no significant apoptosis was observed”; in test [10], “induces apoptosis of CAL-51, MDA-MB-468 and MDA-MB-157 cells in a concentration and time dependent manner”; in test [11], “induces apoptosis of CAL-51, MDA-MB-468 and MDA-MB-157 cells in a concentration and time dependent manner”; in [12] it was “induces apoptosis of CAL-51, MDA-MB-468 and MDA-MB-157 cells in a concentration and time dependent manner”. The “effect on proliferation versus incubation time” value in [13] (setting [19]), in test [14] (setting [19]) and in [16] (setting [19]) was “independent of the incubation time” each time. Also, the IC50 in test [13] (setting [20]) is 15.9 to 21.3 nM; in [14] (setting [20]), 15.9 to 21.3 nM; in [15] (MDA-MB-231, 24 hours) it was 80.5 nM; in [16] (setting [20]), 15.9 to 21.3 nM. Also, the viability at 0.05 µM came to 58.1 ± 14.5% in [15] (MDA-MB-231, 24 h) and 25.9 ± 2.4% in [15] (MDA-MB-231, 72 h). Also, the viability at 0.1 µM in [15] (MDA-MB-231, 24 h) was 41.7 ± 13.3%; in [15] (MDA-MB-231, 72 h), 18.7 ± 4.8%. Also, the “decrease in tumor volume” value in test [17] is on record as 20 to 60%. The “level of apoptosis regulatory proteins” value in test [18] is “no effect”. Moreover, the Activity entry in [1] is “anticancer”.
Take neoharringtonine [(1g)]: the Activity entry in [1] is listed as “cytotoxic”.
